Measured values from patent publication US8497303B2, “Method to enhance aqueous solubility of poorly soluble actives” (Dow Global Technologies LLC, priority 2008, dated 2013).
Where two headings read alike, the source gives them in different places.

Experiments:
[1] = for Percent Loading Using MPEG 350: saturated solution, HPLC
Description: The solution is then stirred with a vortex mixer for approximately 1 to 2 minutes, then shaken with an automated shaker for about 45 minutes. […] The sample is then left overnight in a water bath at about 29° C.
The solution is stirred with a vortex mixer for approximately 1 to 2 minutes, then shaken with an automated shaker for about 45 minutes. […] The sample is left overnight in a water bath at about 30° C.
The solutions are then filtered through a syringe filter and the concentrations are characterized by HPLC. The percent water in the MPEG solutions varies from 0 to 20 percent.
The solution is then filtered through a syringe filter and the concentration is characterized by HPLC. The percent water in the MPEG solutions varies from 0 to 20 percent.

[2] = for Percent Loading Using PEG 400: saturated solution, HPLC
Description: For comparison, solutions of PEG 400 and water are prepared in an analogous manner to those including the MPEG 350.
For comparison, solutions of PEG 400 and water are prepared in an analogous manner.

| Increase in loading compared to the MPEG 350 solution containing no water ([1]; 95:5 MPEG 350:water vs MPEG 350 without water) [%] | More loading with 95:5 MPEG 350:water blend compared to the best PEG 400:water blend ([1]; 95:5 MPEG 350:water vs PEG 400:water blend with highest loading) [weight percent] | Appearance of solution in MPEG 350 ([1]; approximately 15.4 weight percent solution, left overnight in water bath at about 30° C.) | Amount of drug loading in MPEG 350 solution higher than in PEG 400 solution ([1]; neat MPEG 350 vs neat PEG 400) | Amount solubilized by neat PEG 400 solution relative to neat MPEG 350 solution [2] | Percent Loading Using PEG 400 ([2]; 0 percent water in PEG 400) [%] | Percent Loading Using PEG 400 ([2]; 5 percent water in PEG 400) [%] | Percent Loading Using PEG 400 ([2]; 10 percent water in PEG 400) [%] | Percent Loading Using PEG 400 ([2]; 15 percent water in PEG 400) [%] | Percent Loading Using PEG 400 ([2]; 20 percent water in PEG 400) [%] | Maximum solubility for MPEG 350:water blends greater than that for PEG 400:water blends [1] [%] | Percent Loading Using MPEG 350 ([1]; 0 percent water in MPEG 350) [%] | Percent Loading Using MPEG 350 ([1]; 5 percent water in MPEG 350) [%] | Percent Loading Using MPEG 350 ([1]; 10 percent water in MPEG 350) [%] | Percent Loading Using MPEG 350 ([1]; 15 percent water in MPEG 350) [%] | Percent Loading Using MPEG 350 ([1]; 20 percent water in MPEG 350) [%] | Loading with MPEG:water blends relative to PEG:water blends ([1]; when water is added) | Solubility (maximum loading) in PEG 400 [2] [weight percent] | Compound |
| --- | --- | --- | --- | --- | --- | --- | --- | --- | --- | --- | --- | --- | --- | --- | --- | --- | --- | --- |
| 24.4 | 29.2 | some suspended material | approximately 13.6% |  |  |  |  |  |  |  |  |  |  |  |  |  |  | COc1ccc2cc([C@H](C)C(=O)O)ccc2c1 [Naproxen, naproxen] |
|  |  |  |  | slightly more | 16.82 | 20.62 | 21.78 | 22.12 | 21.59 | 10.6 | 16.20 | 21.93 | 23.62 | 24.47 | 24.01 | higher loading |  | CC(=O)Nc1ccc(O)cc1 [Acetaminophen] |
|  |  |  |  |  | 21.60 | 24.31 | 21.48 | 17.24 | 11.56 |  |  |  |  |  |  |  | 21.6±0.8 | CC(C)Cc1ccc(C(C)C(=O)O)cc1 (centres unmarked) [Ibuprofen, ibuprofen] |
